# Where “and” joins values, the source holds several entries; their conditions need not be identical. Equal entries are not always repeated. Where two headings read alike, the source gives them in different places.
# How the values were obtained:
# smHDAC8 = target: T1, smHDAC8 (Schistosoma mansoni, UniProt A5H660); test: biochemical; assay type: biochemical; details: for inhibition at 10 µM: read-out: smHDAC8 (% inhibition, Fluor de Lys); for inhibition at 5 µM / inhibition at 50 µM: pretest; for inhibition at 5 µM: read-out: smHDAC8 % inhibition @ 5 μM (Fluor de Lys); for inhibition at 50 µM: read-out: smHDAC8 % inhibition @ 50 μM (Fluor de Lys)
# T1 construct: made in house; host or cells: E. coli
# T1 sequence (A5H660 1-440): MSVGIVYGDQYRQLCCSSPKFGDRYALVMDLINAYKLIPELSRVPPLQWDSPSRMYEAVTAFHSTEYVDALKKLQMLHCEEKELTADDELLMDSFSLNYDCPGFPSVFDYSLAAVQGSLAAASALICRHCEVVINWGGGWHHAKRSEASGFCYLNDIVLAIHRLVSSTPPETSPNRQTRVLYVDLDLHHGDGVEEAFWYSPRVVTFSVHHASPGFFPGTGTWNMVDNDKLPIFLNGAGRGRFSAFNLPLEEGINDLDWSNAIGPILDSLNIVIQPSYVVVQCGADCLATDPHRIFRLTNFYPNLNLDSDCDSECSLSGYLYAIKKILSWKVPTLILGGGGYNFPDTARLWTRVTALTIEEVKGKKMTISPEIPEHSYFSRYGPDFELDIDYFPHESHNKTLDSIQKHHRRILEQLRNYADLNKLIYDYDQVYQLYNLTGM
# hsHDAC1 [1] = target: T2, hsHDAC1 (Homo sapiens, UniProt Q13547); test: In vitro hsHDAC1 inhibition (ZMAL substrate, trypsin developer); assay type: biochemical; details: for inhibition at 10 µM: read-out: hsHDAC1 (% inhibition, ZMAL)
# hsHDAC6 = target: T3, hsHDAC6 (Homo sapiens, UniProt Q9UBN7); test: In vitro hsHDAC6 inhibition (ZMAL substrate, trypsin developer); assay type: biochemical; details: for IC50: n=2, mean ± S.E.M.
# T3 sequence (Q9UBN7 1-1215): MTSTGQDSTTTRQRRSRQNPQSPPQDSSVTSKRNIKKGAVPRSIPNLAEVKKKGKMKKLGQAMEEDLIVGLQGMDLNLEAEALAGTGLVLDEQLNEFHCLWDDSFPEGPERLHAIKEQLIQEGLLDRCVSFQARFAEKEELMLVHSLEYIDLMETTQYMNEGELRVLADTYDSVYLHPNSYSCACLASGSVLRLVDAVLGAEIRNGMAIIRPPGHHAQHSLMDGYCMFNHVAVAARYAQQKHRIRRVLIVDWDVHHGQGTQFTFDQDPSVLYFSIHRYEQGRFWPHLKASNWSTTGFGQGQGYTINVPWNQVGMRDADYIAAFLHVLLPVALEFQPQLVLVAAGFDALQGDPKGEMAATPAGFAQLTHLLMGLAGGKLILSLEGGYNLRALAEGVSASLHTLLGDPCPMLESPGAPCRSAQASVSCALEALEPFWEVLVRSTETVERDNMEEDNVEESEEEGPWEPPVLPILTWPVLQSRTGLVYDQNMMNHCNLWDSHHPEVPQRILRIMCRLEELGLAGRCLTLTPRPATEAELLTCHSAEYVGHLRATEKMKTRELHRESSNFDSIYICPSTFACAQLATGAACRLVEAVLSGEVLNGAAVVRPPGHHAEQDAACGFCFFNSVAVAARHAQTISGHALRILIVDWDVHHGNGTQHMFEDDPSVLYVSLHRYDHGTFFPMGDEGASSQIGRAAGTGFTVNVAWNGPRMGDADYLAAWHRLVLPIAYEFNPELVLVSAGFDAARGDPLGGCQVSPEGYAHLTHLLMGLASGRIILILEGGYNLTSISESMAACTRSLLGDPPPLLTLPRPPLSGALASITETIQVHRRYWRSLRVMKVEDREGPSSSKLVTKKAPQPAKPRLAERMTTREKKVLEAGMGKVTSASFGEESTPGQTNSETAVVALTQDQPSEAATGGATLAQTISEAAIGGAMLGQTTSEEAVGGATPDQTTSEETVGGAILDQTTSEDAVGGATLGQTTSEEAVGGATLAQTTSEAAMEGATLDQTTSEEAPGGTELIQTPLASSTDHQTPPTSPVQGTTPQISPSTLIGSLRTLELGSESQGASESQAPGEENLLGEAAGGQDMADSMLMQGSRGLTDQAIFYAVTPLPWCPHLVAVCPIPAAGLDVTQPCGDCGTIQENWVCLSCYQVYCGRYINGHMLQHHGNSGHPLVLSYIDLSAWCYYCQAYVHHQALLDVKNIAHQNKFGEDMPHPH
# [2] = test system: S. mansoni larvae (schistosomula); test: Schistosome viability testing, resazurin-based fluorescence assay; assay type: cell-based, Schistosoma mansoni
# Procedure: Selected compounds (Table 4) were tested for their effects on the viability of S. mansoni larvae (schistosomula) using a resazurin‐based fluorescence assay that measures mitochondrial activity. Assays were carried out in triplicate on two separate batches of schistosomula and the results are expressed as the percentage of the value obtained with the solvent (DMSO). Initial testing was done at 10 μM as part of a high‐throughput screening procedure and compounds provoking at least a 25 % reduction in viability were tested at 20 μM to determine a dose‐response. […] However, the level of reduction obtained was mediocre and this compound was not considered for further testing. […] A variety of schistosome viability assays are currently used in the field [e. g. […] However, since we have compared compounds that a priori have the same biological target, it is unlikely that they will have different effects on the parasite and that a different viability assay, for example based on morphological characteristics,52 would give different results. Nevertheless, in view of the potency of the triazole‐based smHDAC8 inhibitors on the enzyme, their further development, aimed at improving their bioavailability, is justified.
# Schistosome viability testing: The resazurin‐based assay to determine the effects of novel inhibitors targeting smHDAC8 on the viability of S. mansoni schistosomula was carried out exactly as previously described.27, 62 Briefly, newly transformed schistosomula (NTS) were obtained in vitro as previously described63 by mechanical transformation of S. mansoni cercaria. A suspension of NTS was prepared at a concentration of 100 per 100 μL using Medium 199 (Invitrogen) supplemented with 10 % fetal calf serum (Gibco), penicillin (50 U×mL^−1), streptomycin (50 μg×mL^−1), and rifampicin (60 μg×mL^−1). Schistosomula were kept in culture for 3 h at 37 °C and 5 % CO2 prior to use in screening. Drug stock solutions of 20 mM in DMSO were used. Mid‐dilutions were performed in 100 % DMSO and 1 μL added to 100 μL/well of M199 medium in black 96 well plates (Nunc, UK) with supplemented Medium 199 and 100 μL of the prepared NTS suspension (100 NTS/well). Live and dead schistosomula (treated with 70 % ethanol) were used as positive and negative controls. Experiments were carried out in triplicate wells in two biological replicates and the compounds were tested at final concentrations of 10 and 20 μM. After 48 h of drug exposure, 20 μL of resazurin solution (Abd Serotec) were added to each well. Finally, after 72 h of exposure, the fluorescence intensity of the highly red fluorescent resorufin product was measured using an excitation wavelength of 530 nm and an emission wavelength of 590 nm in an Infinite M200 Pro microplate reader (TECAN). Background fluorescence of the drug containing medium were determined for each drug dilution using wells containing only DMSO as control.
# hsHDAC8 [3] = target: T4, hsHDAC8 (Homo sapiens, UniProt Q9BY41); test: In vitro hsHDAC8 inhibition, homogeneous fluorescence assay (Fluor de Lys substrate); assay type: biochemical; details: n=2; mean ± S.E.M.
# T4 construct: made in house
# T4 sequence (Q9BY41 1-377): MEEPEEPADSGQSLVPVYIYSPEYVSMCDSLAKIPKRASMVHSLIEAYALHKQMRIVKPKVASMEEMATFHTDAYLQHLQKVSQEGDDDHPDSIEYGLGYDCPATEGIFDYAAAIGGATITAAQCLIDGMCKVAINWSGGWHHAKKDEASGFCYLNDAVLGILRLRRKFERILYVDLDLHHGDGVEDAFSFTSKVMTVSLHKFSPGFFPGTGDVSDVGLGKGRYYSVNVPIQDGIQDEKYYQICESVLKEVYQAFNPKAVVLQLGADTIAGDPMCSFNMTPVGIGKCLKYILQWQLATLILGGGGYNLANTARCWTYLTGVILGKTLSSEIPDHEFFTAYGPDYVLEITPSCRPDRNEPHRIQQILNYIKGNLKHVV
# hsHDAC8 [4] = target: T4, hsHDAC8; design: method as in PMID 19007204; details: cited from earlier work
# hsHDAC1 [5] = target: T2, hsHDAC1; design: method as in PMID 19007204; details: cited from earlier work
# [6] = Schistosoma mansoni, 72 h, read-out: % viability of S. mansoni schistosomula
# T2 sequence (Q13547 whole entry): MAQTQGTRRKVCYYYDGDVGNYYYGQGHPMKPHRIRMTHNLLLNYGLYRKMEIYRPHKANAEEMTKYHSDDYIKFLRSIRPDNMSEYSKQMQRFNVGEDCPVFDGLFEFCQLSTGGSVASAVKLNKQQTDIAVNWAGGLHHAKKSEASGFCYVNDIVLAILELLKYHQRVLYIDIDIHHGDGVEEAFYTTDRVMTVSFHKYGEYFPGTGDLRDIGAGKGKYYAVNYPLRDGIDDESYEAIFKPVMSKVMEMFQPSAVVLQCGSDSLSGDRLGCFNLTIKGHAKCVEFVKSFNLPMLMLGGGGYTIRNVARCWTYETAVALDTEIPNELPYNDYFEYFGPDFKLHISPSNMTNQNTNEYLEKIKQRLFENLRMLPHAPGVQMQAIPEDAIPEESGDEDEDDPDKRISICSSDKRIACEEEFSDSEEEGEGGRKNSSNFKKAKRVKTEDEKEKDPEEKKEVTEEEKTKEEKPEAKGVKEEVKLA
smiles,measurement,setting,value
"O=C(NO)c1cn(-c2ccccc2)nn1 [Compound 2 b, N ‐Hydroxy‐1‐phenyl‐1H‐1,2,3‐triazole‐4‐carboxamide]",IC50,smHDAC8,4.44 ± 1.52 µM
same,inhibition at 10 µM,"smHDAC8; @ 10 μM, pretest n=1",57.9%
same,inhibition at 10 µM,hsHDAC1 [1],8.1 ± 1%
same,IC50,hsHDAC6,42.5 ± 3.64 µM
same,viability at 10 µM,[2]; [6],92.5%
same,IC50,hsHDAC8 [3],12.4 ± 1.08 µM
O=C(NO)c1cn(Cc2ccccc2)nn1 [Compound 2 c],inhibition at 10 µM,"smHDAC8; @ 10 μM, pretest n=1",39.6%
same,melting point,,183 °C
same,inhibition of hsHDAC8 (in words),hsHDAC8 [4],weakly inhibit
same,inhibition of hsHDAC1 (in words),hsHDAC1 [5],weakly inhibit
O=C(NO)c1cn(Cc2ccc(F)cc2)nn1 [Compound 2 d],inhibition at 10 µM,"smHDAC8; @ 10 μM, pretest n=1",36.1%
O=C(NO)c1cn(Cc2ccc(C(F)(F)F)cc2)nn1 [Compound 2 e],IC50,smHDAC8,5.12 ± 0.64 µM
same,inhibition at 10 µM,"smHDAC8; @ 10 μM, pretest n=1",52.5%
same,inhibition at 10 µM,hsHDAC1 [1],3.3 ± 2.5%
same,inhibition at 10 µM,hsHDAC6,2.2 ± 0.5%
same,melting point,,192 °C
same,IC50,hsHDAC8 [3],3.47 ± 0.53 µM
O=C(NO)c1cn(CCc2ccccc2)nn1 [Compound 2 f],IC50,smHDAC8,10.7 ± 1.88 µM
same,inhibition at 10 µM,"smHDAC8; @ 10 μM, pretest n=1",49.5%
same,inhibition at 10 µM,hsHDAC1 [1],1.7 ± 3.4%
same,inhibition at 10 µM,hsHDAC6,12.6 ± 9.6%
same,melting point,,178 °C
same,inhibition of hsHDAC8 (in words),hsHDAC8 [4],weakly inhibit
same,IC50,hsHDAC8 [3],5.54 ± 0.64 µM
same,inhibition of hsHDAC1 (in words),hsHDAC1 [5],weakly inhibit
O=C(NO)c1cn(CCCc2ccccc2)nn1 [Compound 2 g],IC50,smHDAC8,8.81 ± 1.89 µM
same,inhibition at 10 µM,"smHDAC8; @ 10 μM, pretest n=1",50.5%
same,inhibition at 10 µM,hsHDAC1 [1],5.4 ± 7%
same,IC50,hsHDAC6,31.8 ± 6.18 µM
same,melting point,,182 °C
same,inhibition of hsHDAC8 (in words),hsHDAC8 [4],weakly inhibit
same,IC50,hsHDAC8 [3],5.37 ± 0.68 µM
same,inhibition of hsHDAC1 (in words),hsHDAC1 [5],weakly inhibit
Cl.O=C(NO)c1cn(-c2ccc(C#Cc3ccc(CN4CCOCC4)cc3)cc2)nn1 [Compound 2 i],inhibition at 10 µM,"smHDAC8; @ 10 μM, pretest n=1",48%
same,melting point,,239 °C (dec.)
"O=C(NO)c1cn(-c2ccc(C#CC#Cc3ccccc3)cc2)nn1 [Compound 2 j, N ‐Hydroxy‐1‐[4‐(4‐phenylbuta‐1,3‐diynyl)phenyl]‐1H‐1,2,3‐triazole‐4‐carboxamide]","smHDAC8 (% inhibition, Fluor de Lys)","smHDAC8; @ 10 μM, pretest n=1",nearly no inhibitory activity
same,inhibition at 10 µM,"smHDAC8; @ 10 μM, pretest n=1",6.8%
O=C(NO)c1cn(-c2ccccc2O)nn1 [Compound 12],inhibition at 5 µM,smHDAC8,19.5%
same,inhibition at 50 µM,smHDAC8,63.5%
"O=C(NO)c1cn(-c2cc(Cl)ccc2O)nn1 [Compound 13, 1‐(5‐Chloro‐2‐hydroxyphenyl)‐N‐hydroxy‐1H‐1,2,3‐triazole‐4‐carboxamide]",inhibition at 5 µM,smHDAC8,14.5%
same,inhibition at 50 µM,smHDAC8,67.3%
O=C(NO)c1cn(-c2cc(Cl)ccc2OCc2ccc3ccccc3c2)nn1 [Compound 16],inhibition at 50 µM,smHDAC8,43.5%
"O=C(NO)c1cn(-c2cc(Cl)ccc2OCc2ccc(I)cc2)nn1 [Compound 17, 1‐{5‐Chloro‐2‐[(4‐iodobenzyl)oxy]phenyl}‐N‐hydroxy‐1H‐1,2,3‐triazole‐4‐carboxamide]",inhibition at 50 µM,smHDAC8,21%
Cc1ccc(Oc2ccc(Cl)cc2-n2cc(C(=O)NO)nn2)cc1 [Compound 20],inhibition at 5 µM,smHDAC8,49.8%
same,inhibition at 50 µM,smHDAC8,91.1%
"O=C(NO)c1cn(-c2cc(Cl)ccc2Oc2ccc(F)cc2)nn1 [Compound 21, 1‐[5‐Chloro‐2‐(4‐fluorophenoxy)phenyl]‐N‐hydroxy‐1H‐1,2,3‐triazole‐4‐carboxamide]",inhibition at 5 µM,smHDAC8,66.2%
same,inhibition at 50 µM,smHDAC8,93.4%
same,IC50,"smHDAC8; n=2, mean ± S.E.M., read-out: smHDAC8 IC50 (Fluor de Lys)",0.5 µM and 0.504 µM
same,inhibition at 5 µM,hsHDAC1 [1]; @ 5 μM,11%
same,inhibition at 50 µM,hsHDAC1 [1]; @ 50 μM,38.2%
same,inhibition at 5 µM,hsHDAC6; @ 5 μM,-1.5%
same,inhibition at 50 µM,hsHDAC6; @ 50 μM,34.5%
same,viability at 10 µM,[2]; [6],82%
same,IC50,hsHDAC8 [3],2.2 ± 0.68 µM
O=C(NO)c1cn(-c2ccccc2Oc2ccccc2)nn1 [Compound 28],inhibition at 5 µM,smHDAC8,49.1%
same,inhibition at 50 µM,smHDAC8,87.9%
"O=C(NO)c1cn(-c2cc(Cl)ccc2Oc2ccccc2)nn1 [Compound 29, 1‐(5‐Chloro‐2‐phenoxyphenyl)‐N‐hydroxy‐1H‐1,2,3‐triazole‐4‐carboxamide]",inhibition at 5 µM,smHDAC8,51.4%
same,inhibition at 50 µM,smHDAC8,91.5%
same,viability at 10 µM,[2]; [6],64.2%
same,viability at 20 µM,[2]; [6],49.9%
same,reduction in viability of schistosomula (in words),[2]; at 10 and 20 μM,significant reduction in viability
"O=C(NO)c1cn(-c2ccccc2C(=O)c2ccccc2)nn1 [Compound 32, 1‐(2‐Benzoylphenyl)‐N‐hydroxy‐1H‐1,2,3‐triazole‐4‐carboxamide]",inhibition at 5 µM,smHDAC8,23.4%
same,inhibition at 50 µM,smHDAC8,75.4%

# Reference: paper PMC7187165, “Structure‐Based Design, Synthesis, and Biological Evaluation of Triazole‐Based smHDAC8 Inhibitors” (Chemmedchem, 2020)
